{"source": "patent US20160312185A1", "about": "“METHOD FOR PRODUCING MEGAKARYOCYTES AND PLATELETS” (FUNDACIÓN PÚBLICA ANDALUZA PROGRESO Y SALUD, priority 2013, published 2016)", "system": "AND1 PSC", "experiment": "Megakaryocyte precursor analysis (CD34+ and CD34+CD41a+) in EBs by flow cytometry", "type": "cell-based, human", "details": "wild-type AND1 PSCs, TSA 10 and 100 nM from start, day 14, vs DMSO", "method": "The emergence of megakaryocyte precursor cells (CD34+ and CD34+ CD41a^+) during EB differentiation stages on days 10, 14 and 17 of differentiation was evaluated. One third of the EBs growing in a 6-well plate were collected and washed once with PBS. Similarly, to evaluate the effect of Trichostatin A (TSA) on differentiation, the EBs were treated with 10 nM or 100 nM of DMSO or TSA for 14 days. In both cases, the EBs were disassociated with collagenase B and disassociation buffer as described previously. A homogenous cell suspension was obtained after washing the EBs with PBS and being carefully resuspended in […] of PBS with 2% FCS and 2 mM of EDTA until no clumps were observed. The disassociated cells were stained with anti-CD34-PECy7 antibodies (Miltenyi Biotec,\nBergisch Gladbach, Germany) and anti-CD41 a-PE antibodies and 7AAD. Living cells identified by 7AAD exclusion were analyzed using a FACSCanto II flow cytometer.", "data": [{"smiles": "CC(/C=C/C(=O)NO)=C\\[C@@H](C)C(=O)c1ccc(N(C)C)cc1", "note": "[Trichostatin A]", "values": [{"measurement": "CD34+ CD41+ megakaryocyte progenitors", "result": "accelerates the emergence of megakaryocyte progenitors"}, {"measurement": "CD34+ CD41+ megakaryocyte progenitors", "setting": "listed as TSA", "result": "increase"}]}]}
